Results published in patent US8435978B2, “Substituted sulfonamide compounds” (Gruenenthal GmbH, priority 2006, dated 2013).

Experiments:
human B1R receptor = molecular target: T1, human B1R receptor (Homo sapiens, UniProt P46663); experiment: Functional study on the bradykinin receptor 1 (B1R), FLIPR Ca2+ assay, hB1R cells; format: cell-based; settings: CHO-K1, test substance 10 μM, agonist Lys-Des-Arg9-bradykinin 0.5 nM, % inhibition compared with the maximum achievable inhibition, read-out: B1R Antagonism, human [10 μM] % Inhibition
T1 construct: host or cells: CHO K1 cells (Chinese hamster ovary), stably transfected
T1 sequence (P46663 1-353): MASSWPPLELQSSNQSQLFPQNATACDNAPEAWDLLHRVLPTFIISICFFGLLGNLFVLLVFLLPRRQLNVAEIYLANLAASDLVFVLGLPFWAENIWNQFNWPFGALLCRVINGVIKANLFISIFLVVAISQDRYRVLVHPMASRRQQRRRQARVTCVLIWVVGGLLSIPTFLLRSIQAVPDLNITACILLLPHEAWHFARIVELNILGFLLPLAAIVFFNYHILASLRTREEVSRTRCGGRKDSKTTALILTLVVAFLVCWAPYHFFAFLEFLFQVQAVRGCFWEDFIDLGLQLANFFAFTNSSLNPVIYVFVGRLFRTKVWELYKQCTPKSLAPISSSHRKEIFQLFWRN
Summary of the method: (§1)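 CHO K1 cells stably expressing human or rat B1R were loaded with Fluo-4 and read on a FLIPR (ex 488/em 540 nm, peak fluorescence). Test compounds at 10 μM were added first, then after 10 min agonist: Lys-Des-Arg9-bradykinin 0.5 nM for hB1R, Des-Arg9-bradykinin 100 nM for rB1R; % inhibition versus maximum inhibition.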

B1R receptor of the rat = molecular target: T2, B1R receptor of the rat (Rattus norvegicus, UniProt P97583); experiment: Functional study on the bradykinin receptor 1 (B1R), FLIPR Ca2+ assay, rB1R cells; format: cell-based; settings: CHO-K1, test substance 10 μM, agonist Des-Arg9-bradykinin 100 nM, % inhibition compared with the maximum achievable inhibition, read-out: B1R Antagonism, rat [10 μM] % Inhibition
T2 construct: host or cells: CHO K1 cells (Chinese hamster ovary), stably transfected
T2 sequence (P97583 1-337): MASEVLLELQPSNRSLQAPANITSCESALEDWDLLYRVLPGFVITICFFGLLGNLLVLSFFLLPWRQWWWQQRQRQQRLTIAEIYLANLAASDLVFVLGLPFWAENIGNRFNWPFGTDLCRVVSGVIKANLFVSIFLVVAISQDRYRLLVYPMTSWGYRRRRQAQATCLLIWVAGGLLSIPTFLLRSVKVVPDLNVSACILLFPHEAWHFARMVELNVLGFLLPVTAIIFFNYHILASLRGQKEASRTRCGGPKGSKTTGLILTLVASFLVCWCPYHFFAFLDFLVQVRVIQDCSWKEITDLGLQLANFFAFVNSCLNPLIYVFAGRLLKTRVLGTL
Summary of the method: as §1

| SMILES | inhibition at 10 µM (human B1R receptor) | inhibition at 10 µM (B1R receptor of the rat) |
| --- | --- | --- |
| O=C(COCC1CCCCN1S(=O)(=O)c1c(Cl)cccc1Cl)N1CCC(N2CCCCC2)CC1 (stereo not drawn) [Example 336, 1-(1,4′-bipiperidin-1′-yl)-2-((1-(2,6-dichlorophenylsulfonyl)piperidin-2-yl)methoxy)ethanone] | 103% | 105% |
| O=C(COCC1CCCN1S(=O)(=O)c1c(Cl)cccc1Cl)N1CCC(N2CCCCC2)CC1 (stereo not drawn) [Example 337, 1-(1,4′-bipiperidin-1′-yl)-2-((1-(2,6-dichlorophenylsulfonyl)pyrrolidin-2-yl)methoxy)ethanone] | 104% | 104% |
| COc1cc(OC)cc(N2CCN(C(=O)COCC3CCCCN3S(=O)(=O)c3c(C)cc(OC)cc3C)CC2)c1 (stereo not drawn) [Example 340, 1-(4-(3,5-dimethoxyphenyl)piperazin-1-yl)-2-((1-(4-methoxy-2,6-dimethylphenylsulfonyl)piperidin-2-yl)methoxy)ethanone] | 105% | 101% |
| COc1cc(C)c(S(=O)(=O)N2CCCCC2COCC(=O)N2CCN(CCN(C(C)C)C(C)C)CC2)c(C)c1 (stereo not drawn) [Example 341, 1-(4-(2-(diisopropylamino)ethyl)piperazin-1-yl)-2-((1-(4-methoxy-2,6-dimethylphenylsulfonyl)piperidin-2-yl)methoxy)ethanone] | 105% | 102% |
| COc1cc(C)c(S(=O)(=O)N2CCCCC2COCC(=O)N(C2CC2)C2CCN(Cc3ccccc3)CC2)c(C)c1 (stereo not drawn) [Example 342, N-(1-benzylpiperidin-4-yl)-N-cyclopropyl-2-((1-(4-methoxy-2,6-dimethylphenylsulfonyl)piperidin-2-yl)methoxy)acetamide] | 104% | 100% |
| COc1cc(C)c(S(=O)(=O)N2CCCCC2COCC(=O)NCc2cccnc2)c(C)c1 (stereo not drawn) [Example 345, 2-((1-(4-methoxy-2,6-dimethylphenylsulfonyl)piperidin-2-yl)methoxy)-N-(pyridin-3-ylmethyl)acetamide] | 22.3% | 95.9% |
| COc1cc(C)c(S(=O)(=O)N2CCCC2COCC(=O)N2CCN(c3cccc(Cl)c3)CC2)c(C)c1 (stereo not drawn) [Example 346, 1-(4-(3-chlorophenyl)piperazin-1-yl)-2-((1-(4-methoxy-2,6-dimethylphenylsulfonyl)pyrrolidin-2-yl)methoxy)ethanone] | 95.5% | 101% |
| COc1cc(C)c(S(=O)(=O)N2CCCC2COCC(=O)N2CCN(c3ccc(C)c(C)c3)CC2)c(C)c1 (stereo not drawn) [Example 347, 1-(4-(3,4-dimethylphenyl)piperazin-1-yl)-2-((1-(4-methoxy-2,6-dimethylphenylsulfonyl)pyrrolidin-2-yl)methoxy)ethanone] | 56.6% | 103% |

Further lines, results first:

| inhibition at 10 µM (human B1R receptor) | inhibition at 10 µM (B1R receptor of the rat) | SMILES |
| --- | --- | --- |
| 92.6% | 92.2% | O=C(COCC1CCCN1S(=O)(=O)c1c(Cl)cc(Cl)cc1Cl)NCCN1CCCCC1 (stereo not drawn) [Example 338, N-(2-(piperidin-1-yl)ethyl)-2-((1-(2,4,6-trichlorophenylsulfonyl)pyrrolidin-2-yl)methoxy)acetamide] |
| 77.5% | 41.6% | O=C(COCC1CCCN1S(=O)(=O)c1c(Cl)cc(Cl)cc1Cl)NCCN1CCCC1 (stereo not drawn) [Example 339, N-(2-(pyrrolidin-1-yl)ethyl)-2-((1-(2,4,6-trichlorophenylsulfonyl)pyrrolidin-2-yl)methoxy)acetamide] |
| 80% | 100% | COc1cc(C)c(S(=O)(=O)N2CCCCC2COCC(=O)NCCN2CCCC2)c(C)c1 (stereo not drawn) [Example 343, 2-((1-(4-methoxy-2,6-dimethylphenylsulfonyl)piperidin-2-yl)methoxy)-N-(2-(pyrrolidin-1-yl)ethyl)acetamide] |
| 48.8% | 88.4% | COc1cc(C)c(S(=O)(=O)N2CCCCC2COCC(=O)NCCCN2CCOCC2)c(C)c1 (stereo not drawn) [Example 344, 2-((1-(4-methoxy-2,6-dimethylphenylsulfonyl)piperidin-2-yl)methoxy)-N-(3-morpholinopropyl)acetamide] |
